According to article PMC8179049 (Chemical Science, 2020):
Several values for one entry are separate records, joined by “and”; a condition that tells them apart may be missing. Equal values may be shown once. Read-outs that look alike come from different tables or passages of the source.

Assays:
[1] = molecular target: T1, human AspH (His6-AspH315-758) (Homo sapiens, UniProt Q12797); test: SPE-MS AspH inhibition assay; format: biochemical; conditions: mean ± SD, n = 3
T1 construct: N-Terminally His6-tagged human AspH315-758 (His6-AspH315-758) was produced in Escherichia coli BL21 (DE3); made in house; host or cells: Escherichia coli BL21 (DE3), pET-28a(+) vector
T1 sequence (Q12797 315-758): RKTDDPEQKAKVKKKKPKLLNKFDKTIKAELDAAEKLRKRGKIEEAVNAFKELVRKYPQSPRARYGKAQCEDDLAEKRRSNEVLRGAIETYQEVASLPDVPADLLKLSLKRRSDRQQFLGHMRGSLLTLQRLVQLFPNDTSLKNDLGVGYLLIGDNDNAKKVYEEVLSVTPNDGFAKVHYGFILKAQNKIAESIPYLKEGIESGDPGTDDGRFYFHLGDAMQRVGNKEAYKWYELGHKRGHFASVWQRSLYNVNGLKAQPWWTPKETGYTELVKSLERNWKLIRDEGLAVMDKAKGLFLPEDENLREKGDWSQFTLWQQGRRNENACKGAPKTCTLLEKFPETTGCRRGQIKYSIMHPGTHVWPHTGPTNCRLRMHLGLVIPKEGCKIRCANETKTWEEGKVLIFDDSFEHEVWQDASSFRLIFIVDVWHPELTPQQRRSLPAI
Experimental: 6. Recombinant AspH production and purification
N-Terminally His6-tagged human AspH315-758 (His6-AspH315-758) was produced in Escherichia coli BL21 (DE3) cells using a pET-28a(+) vector and purified by Ni(II)-affinity chromatography (HisTrap HP column, GE Healthcare; 1 mL/min flow rate) and size-exclusion chromatography (HiLoad 26/60 Superdex 75 pg 300 mL column; 1 mL/min) using an ÄKTA pure machine (GE Healthcare) as previously reported.1,4 AspH was >95% pure by SDS-PAGE and MS analysis and had the anticipated mass (calculated for His6-AspH315-758: 54519 Da, found: 54519 Da).1 Purified AspH was stored in 50 mM HEPES buffer (pH 7.5, 150 mM NaCl) at a concentration of 125 μM at -78 °C; fresh aliquots were used for all AspH assays.
7. AspH substrate synthesis
AspH substrates were designed based on the sequence of EGFD1 of human coagulation factor X (hFX amino acids 86-124), which is a reported cellular AspH substrate.2 All substrates were prepared with a C-terminal amide.
The hFX-EGFD186-124-4Ser peptide (hFX amino acids 86-124; Supporting Figure S1c),1 used for crystallography experiments, was synthesized by solid phase peptide synthesis (SPPS) and purified by GL Biochem (Shanghai) Ltd (Shanghai, China). The thioether linked cyclic peptide hFX-CP101-119 (hFX amino acids 101-119; Supporting
Figure S1d), which was used as substrate in AspH SPE-MS assays,4 was synthesized by an intramolecular thioetherification cyclization reaction from the corresponding linear peptide (D-Ala replacing Cys101hFX and Ser replacing Cys112hFX) which was obtained by microwave-assisted solid phase peptide synthesis using the Fmoc-protection strategy as described.4
8. AspH inhibition assays […]
water; ammonium iron(II) sulfate hexahydrate, FAS, (NH 4)2Fe(SO4)2·6H2O: 400 mM in 20 mM HCl diluted to 1 mM in Milli-Q® Ultrapure water) were freshly prepared each day from commercially sourced solids (Sigma […]
(Greiner) in an approximately three-fold and 11-point dilution series (100 μM top concentration) using an ECHO 550 acoustic dispenser (Labcyte). DMSO and 2,4 -PDCA were used as negative and positive controls , respectively .
The final DMSO concentration was kept constant at 0.5%v/v throughout all experiments (using the DMSO backfill option of the acoustic dispenser). Each reaction was performed in technical duplicates in adjacent wells of the assay plates; additionally, assays were performed in three independent technical duplicates on different days using different DMSO inhibitor solutions. […]
dispensed across the inhibitor-containing 384-well assay plates with a multidrop dispenser (ThermoFischer Scientific) at 20°C under an ambient atmosphere. The plates were subsequently centrifuged (1000 rpm, 30 s) and incubated for 15 minutes at 20°C. The Substrate Mixture (25 μL/well), containing 2.0 μM hFX-CP101-119, 200 μM […]
Note: The multidrop dispenser ensured proper mixing of the Enzyme and the Substrate Mixtures which was essential for assay reproducibility. The plates were centrifuged (1000 rpm, 30 s) and af ter incubating for 7 minutes, […]
centrifuged (1000 rpm, 60 s) and analysed by MS.
The mass spectrometer parameters were:
Data were exported into Microsoft
The standard deviation (SD) of three
Z’-factors were calculated
9. Determination of kinetic parameters […]
in 50 mM HEPES buffer (pH 7.5).

[2] = molecular target: T2, human AspH (Homo sapiens, UniProt Q12797); test: SPE-MS AspH turnover assay in the absence of 2OG (2OG derivative as cosubstrate); conditions: 330 μM 2OG or 2OG derivative, 0.1 μM AspH, 2 μM hFX-CP101-119, 50 μM FAS, t = 15 min;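 note: percent conversion = hydroxylated cyclic peptide peak area relative to summed substrate plus product areas, taken from +2 charge state ion chromatograms by solid phase extraction MS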
T2 sequence (Q12797 315-758): T1 sequence (Q12797 315-758)
Experimental: AspH assays were performed as described in the ESI, ^† data are shown as the mean of three independent runs (n = 3; mean ± standard deviation, SD).
AspH assays were performed as described in Section 9 of the Supporting Information using 0.1 μM AspH, 2 μM
a positive control in the SPE-MS AspH turnover assays (Entry 1).
dependent conversion of the AspH substrate hFX-CP101-119 (Supporting Figure S1d). %-Substrate conversion is
AspH assays were performed as
described in Section 9 of the Supporting Information using 0.1 μM AspH, 2 μM hFX-CP101-119, 50 μM FAS, 330
AspH inhibition assays were incubated for 6 rather than 7 minutes before the enzyme reaction was
stopped by the addition of 10%v/v aqueous formic acid.
MS-analyses were performed using a RapidFire RF 365 high-throughput sampling robot (Agilent) attached to an
iFunnel Agilent 6550 accurate mass quadrupole time-of-flight (Q-TOF) mass spectrometer operated in the positive
ionization mode. Assay samples were aspirated under vacuum for 0.4 s and loaded onto a C4 solid phase extraction (SPE) cartridge. After loading, the C4 SPE cartridge was washed with 0.1%v/v aqueous formic acid to remove
non-volatile buffer salts (5 s, 1.5 mL/min). The peptide was eluted from the SPE cartridge with 0.1%v/v aqueous
formic acid in 85/15v/v acetonitrile/water into the mass spectrometer (5 s, 1.25 mL/min) and the SPE cartridge re-
equilibrated with 0.1%v/v aqueous formic acid (1 s, 1.25 mL/min). The mass spectrometer parameters were:
capillary voltage (4000 V), nozzle voltage (1000 V), fragmentor voltage (365 V), gas temperature (280°C), gas
flow (13 L/min), sheath gas temperature (350°C), sheath gas flow (12 L/min). The m/z +2 charge states of the
cyclic peptide (substrate) and the hydroxylated cyclic peptide (product) were used to extract ion chromatogram
data, peak areas were integrated using RapidFire Integrator software (Agilent). Data were exported into Microsoft
Excel and used to calculate the % conversion of the hydroxylation reaction using the equation: % conversion =
100 x (integral product cyclic peptide) / (integral substrate cyclic peptide + integral product cyclic peptide).
Normalized dose-response curves (2,4-PDCA and DMSO controls) were obtained from the raw data by non-linear
regression (GraphPad Prism 5) and used to determine IC50-values. The standard deviation (SD) of three
independent IC50 determinations (n = 3) was calculated using GraphPad Prism 5. Z’-factors were calculated
according to the cited literature using Microsoft Excel (Supporting Figure S3).14

[3] = 50 nM His6-AspH315–758, 1.0 μM hFX-CP101–119, 3 μM 2OG, read-out: IC50 (inhibition of AspH)
[4] = 50 nM His6-AspH315-758, 1.0 μM hFX-CP101-119, read-out: IC50 (ESI Fig. S4)
[5] = IC50 at 200 μM 2OG (ESI Table S1), assay concentration of 200 μM 2OG
[6] = IC50 at 400 μM 2OG (ESI Table S1), assay concentration of 400 μM 2OG
[7] = IC50 at 600 μM 2OG (ESI Table S1), assay concentration of 600 μM (0.6 mM) 2OG
[8] = 50 nM His6-AspH315–758, 1.0 μM hFX-CP101–119, 3 μM 2OG

SMILES | IC50 [1, 3] | AspH-catalyzed substrate conversion (hydroxylation of hFX-CP101-119) [2] [%] | other results
O=C(O)C(=O)[C@@H]1[C@@H](C(=O)O)[C@@H]2C=C[C@H]1C2 (racemic) [compound 36] | ~19.3 µM and 19.3 µM | < 1 | 
O=C(O)CNC(=O)C(=O)O [NOG, N-oxalylglycine, reference compound] | ~1 µM |  | IC50 [1, 4]: 0.99 ± 0.31 µM
CCC(CC(=O)O)C(=O)C(=O)O (stereo not shown) [compound 17, 3-ethyl-2OG] | ~1.2 µM and 1.2 µM | < 1 | IC50 [1, 5]: 22.4 ± 3.2 µM; IC50 [1, 6]: 35.3 ± 9.9 µM; IC50 [1, 7]: 54.9 ± 10.8 µM
CCCC(CC(=O)O)C(=O)C(=O)O (stereo not shown) [compound 18] | ~5.7 µM and 5.7 µM | < 1 | 
CC(C)(C)CCC(CC(=O)O)C(=O)C(=O)O (stereo not shown) [compound 19] | ~48.2 µM and 48.2 µM | < 1 | 
O=C(O)CC(CCCc1ccccc1)C(=O)C(=O)O (stereo not shown) [compound 20] | ~6.8 µM and 6.8 µM | < 1 | melting point: > 220 °C (dec.)
Cc1cc(C)cc(CC(CC(=O)O)C(=O)C(=O)O)c1 (stereo not shown) [compound 25] | 4.7 ± 0.2 µM | < 1 | 
CC(CC(=O)C(=O)O)C(=O)O (stereo not shown) [compound 26, 4-methyl-2OG] |  | ~10 | IC50 (inhibition of AspH) [1, 8]: did not inhibit; IC50 (inhibition of AspH) ([1]; 50 nM His6-AspH315–758, 1.0 μM hFX-CP101–119, 3 μM 2OG, listed as C00031): Inactive
CCC(CC(=O)C(=O)O)C(=O)O (stereo not shown) [compound 27] | 0.61 ± 0.09 µM | < 1 | 
CCCC(CC(=O)C(=O)O)C(=O)O (stereo not shown) [compound 28] | 0.47 ± 0.08 µM | < 1 | 
CC(C)CC(CC(=O)C(=O)O)C(=O)O (stereo not shown) [compound 29] | 0.51 ± 0.12 µM | < 1 | IC50 [1, 5]: 10.8 ± 2.7 µM; IC50 [1, 6]: 16.8 ± 2.5 µM; IC50 [1, 7]: 26.9 ± 7 µM
CC(C)(C)CCC(CC(=O)C(=O)O)C(=O)O (stereo not shown) [compound 30] | 0.7 ± 0.11 µM | < 1 | 
CC1(C)C(C(=O)O)C1C(=O)C(=O)O (stereo not shown) [compound 35] | ~5.2 µM and 5.2 µM | < 1 | 
O=C(O)C(=O)c1cscc1C(=O)O [compound 37] |  | < 1 | IC50 (inhibition of AspH) [1, 8]: did not inhibit; IC50 (inhibition of AspH) ([1]; 50 nM His6-AspH315–758, 1.0 μM hFX-CP101–119, 3 μM 2OG, listed as C00032): Inactive
O=C(O)C(=O)c1ccccc1C(=O)O [compound 39] |  | < 1 | IC50 (inhibition of AspH) [1, 8]: did not inhibit; IC50 (inhibition of AspH) ([1]; 50 nM His6-AspH315–758, 1.0 μM hFX-CP101–119, 3 μM 2OG, listed as C00006): Inactive
O=C(O)C(=O)c1cccc(C(=O)O)c1 [compound 40, 3-carboxyphenylglyoxylic acid] |  | < 1 | IC50 (inhibition of AspH) [1, 8]: did not inhibit; IC50 (inhibition of AspH) ([1]; 50 nM His6-AspH315–758, 1.0 μM hFX-CP101–119, 3 μM 2OG, listed as C00009): Inactive
O=C(O)C(=O)c1ccc(C(=O)O)c(Br)c1 [compound 45] |  | ~8 | IC50 (inhibition of AspH) [1, 8]: Inactive
O=C(O)C(=O)C1(C(=O)O)CC1 [compound 48] | ~3.3 µM and 3.3 µM | < 1 | 
CC(C)(NC(=O)C(=O)O)C(=O)O [compound 49, N-oxalyl-α-methylalanine] | ~2.9 µM |  | IC50 [1, 4]: 2.9 ± 1.3 µM
